Values joined by “and” are separate entries in the source; they are usually repeats but may differ in a detail not shown here. Equal values may be shown once. Numbered stars: 1 amine (or outer) side, 2 acyl side, 3 side chain; on linkers, the order of the positions; unused ones are H or OH. Square brackets hold non-standard residues; d marks the D form. Peptide text beside a SMILES is read from it. * marks the point of attachment. C18 diacid = O=C(O)CCCCCCCCCCCCCCCCC(=O)*; γGlu = O=C(O)[C@H](CCC(=O)[*:2])N[*:1]; NMeL = CN[C@@H](CC(C)C)C(=O)O; hSer = N[C@@H](CCO)C(=O)O; Nle = CCCC[C@H](N)C(=O)O; AEEA = NCCOCCOCC(=O)O
Experiments:
[1] = biological target: T1, hNK2R (Homo sapiens, UniProt P21452); assay: Hithunter cAMP assay (Gs-coupling) in transfected COS-7 cells; assay type: cell-based; conditions: COS-7 cells
T1 construct: host or cells: COS-7
T1 sequence (P21452 1-398): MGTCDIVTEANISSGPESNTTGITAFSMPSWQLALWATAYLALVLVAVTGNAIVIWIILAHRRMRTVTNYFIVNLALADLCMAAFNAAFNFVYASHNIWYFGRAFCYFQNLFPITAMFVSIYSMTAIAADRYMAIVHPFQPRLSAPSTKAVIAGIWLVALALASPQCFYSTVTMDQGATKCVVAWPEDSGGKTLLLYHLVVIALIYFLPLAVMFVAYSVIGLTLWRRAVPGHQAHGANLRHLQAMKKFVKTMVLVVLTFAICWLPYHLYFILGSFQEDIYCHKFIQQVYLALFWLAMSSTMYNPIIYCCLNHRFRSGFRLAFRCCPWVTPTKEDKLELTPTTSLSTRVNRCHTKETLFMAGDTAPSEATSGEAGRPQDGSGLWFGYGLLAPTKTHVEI
Method: As a secondary measure of agonist-induced G-protein coupled receptor (GPCR) activation cyclin adenosine monophosphate (cAMP) was measured by the Hithunter cAMP-assay from DiscoverX. Assays were carried out using COS-7 cells transiently transfected by calcium phosphate transfection with a vector pcDNA3.1(+) encoding one of the indicated receptors (Genscript). Briefly, DNA mixed with CaCl2 (2 M) and TE-buffer (10 mM Tris-HCl, 1 mM EDTA, pH 7.5) was dropwise added to 2×HBS (50 mM HEPES, 280 mM NaCl, 1.5 mM NaH2PO4, pH 7.2) and incubated for 45 min at room temperature (22±2° C.). The mixture and a final concentration of 100 μM Chloroquine were added to the cells and left to incubate for 5 hours at 37° C. under standard cell culture conditions (10% CO2) before changing medium to fresh maintenance medium.
The cAMP-assay takes advantage of the tachykinin receptors' ability to induce production of the cAMP second messenger upon agonist (ligand) binding on receptor expressing cells. Production of cAMP stems from receptor coupling to Gs-protein although coupling to Gq-protein (IP3-production) is considered the primary signalling mechanism by tachykinin receptors.
The assay was performed the day after transfection. Briefly, maintenance medium was aspirated, and plates were washed ×1 in HBSS before adding assay buffer (HBSS+1 mM IBMX), pre-incubated for 30 min at 37° C. followed by 15 min incubation with agonist (ligand) at 37° C. After incubation, plates were subjected to cell lysis and anti-cAMP-antibody incubation as described by manufacturer. Luminescence was measured with EnVision Multimode Plate Reader from Perkin Elmer.

[2] = in vivo; parameters: species or system mice; conditions: mouse; for half-life: sc, 0.5 mg/kg
Method: Pharmacokinetics: To evaluate the in vivo half-life of individual peptide analogues we used wild type lean mice at around 10 weeks of age injected once with a peptide analogue. For each sample time point 3-4 mice were used and blood was drawn from the submandibular vein at indicated time points following injection. Prior to injection mice were given ad libitum access to standard chow diet. Mice were subcutaneously injected with 0.5 mg/kg peptide analogue in a volume of 2 ml/kg. The amount of peptide analogue and metabolite(s) present in blood samples were measured by TF-LC-MS and MetID-LC-MS, respectively. Sample preparation: One volume of plasma is precipitated with three volumes of ethanol (with internal standard). The mixture is centrifuged at 13000 g for 20 min. One volume of supernatant is diluted with two volumes of Milli-Q water (1% formic acid). Calibration curve: peptide analogue was spiked into blank mouse plasma. Range: 0.5 to 2000 nM (linear 1/x2).

[3] = Energy expenditure and weight loss pharmacodynamics in DIO mice; assay type: in vivo; parameters: Energy expenditure efficacy (change relative to vehicle control) / Weight loss efficacy (change relative to vehicle control): concentration or dose not given beside the values; conditions: for Energy expenditure EC50 / Energy expenditure efficacy (change relative to vehicle control) / Weight loss EC50 / Weight loss efficacy (change relative to vehicle control): daily s.c. injections for nine days
Method: Indirect calorimetry was used to evaluate the ability of individual peptide analogues to dose-dependently increase energy expenditure (EE) we used metabolic cages and indirect calorimetry measured by the Promethion system. To this end, oxygen consumption was used as a surrogate measure for EE. Substrate preference (fat or carbohydrate) was evaluated using the respiratory exchange ratio (RER). In parallel, behavioral information such as walking distance and water and food intake were recorded.
Prior to experimentation, DIO mice were transferred to habituation cages for at least 10 days (5 days outside and at least 5 days in the Sable Systems gas analyzer module) to acclimatize. For all in vivo compound tests for EE evaluation, mice received subcutaneous injections between 2 and 4 pm.
Energy expenditure and weight loss pharmacodynamics: To evaluate the ability of individual peptide analogues to dose-dependently increase EE by indirect calorimetry in DIO mice. Body weights were monitored from beginning of habituation until end of experiment. After habituation, mice were treated with daily injections of NKA(4-10) analogues at four different doses or vehicle by daily subcutaneous injections for nine days.
EE increase over vehicle was calculated as percent of mean oxygen consumption over a 30-hour period after injection. Prior to injection peptide analogues were dissolved and diluted in in vivo buffer. In order to take into account, the different half-lives for the compounds tested, the doses for each compound were calculated based on the given compound's individual pk-profiles.

| Plasma exposure [2 h] [2] [µM] | Plasma exposure [26 h] [2] [nM] | AUC ([2]; 330 nmol/kg) [µM·h] | Cmax ([2]; 330 nmol/kg) [µM] | Structure (SMILES) | EC50 [1] | hNK2R, cAMP Efficacy [1] | half-life ([2]; Half-life) [h] | Energy expenditure EC50 [3] [nmol/kg] | Energy expenditure efficacy (change relative to vehicle control) [3] [%] | Weight loss EC50 [3] [nmol/kg] | Weight loss efficacy (change relative to vehicle control) [3] [%] | Reduced weight loss efficacy compared to compound 304, 344 and 383 [3] | half-life [2] [h] |
| --- | --- | --- | --- | --- | --- | --- | --- | --- | --- | --- | --- | --- | --- |
| – | – | – | – | CCCC[C@H](NC(=O)[C@H](CC(C)C)N(C)C(=O)CNC(=O)[C@@H](NC(=O)[C@H](Cc1ccccc1)NC(=O)[C@H](CCCCN)NC(=O)[C@H](CC(=O)O)NC(=O)COCCOCCNC(=O)COCCOCCNC(=O)CC[C@H](NC(=O)CCCCCCCCCCCCCCCCC(=O)O)C(=O)O)C(C)C)C(N)=O [compound 304, *Asp;Lys;Phe;Val;Gly;NmLeu;Nle;NH2] | 2.3 nM | 100% | ≥ 10 | 94 | 11 | 16 | 12 | – | – |
| 5.364 | 183 | 28.8 | 3.45 | CCCC[C@H](NC(=O)[C@H](CC(C)C)N(C)C(=O)CNC(=O)[C@@H](NC(=O)[C@H](Cc1ccc(O)cc1)NC(=O)[C@H](CCCCN)NC(=O)[C@H](CC(=O)O)NC(=O)COCCOCCNC(=O)COCCOCCNC(=O)CC[C@H](NC(=O)CCCCCCCCCCCCCCCCC(=O)O)C(=O)O)C(C)C)C(N)=O [compound 305, *Asp;Lys;Tyr;Val;Gly;NmLeu;Nle;NH2] ({C18 diacid-γGlu-AEEA-AEEA}-DKYVG[NMeL][Nle]-NH2) | 0.7 nM and ~0.8 nM | 50% and 70% | 5.5 | 34 | 11 | 69 | 6 | approximately 50% | – |
| – | – | – | – | COCC[C@H](NC(=O)[C@H](CC(C)C)N(C)C(=O)CNC(=O)[C@@H](NC(=O)[C@H](Cc1ccc(O)cc1)NC(=O)[C@H](CCCCN)NC(=O)[C@H](CC(=O)O)NC(=O)COCCOCCNC(=O)COCCOCCNC(=O)CC[C@H](NC(=O)CCCCCCCCCCCCCCCCC(=O)O)C(=O)O)C(C)C)C(N)=O [compound 344, *Asp;Lys;Tyr;Val;Gly;NmLeu;Metox;NH2] ({C18 diacid-γGlu-AEEA-AEEA}-DKYVG[NMeL][hSer](Me)-NH2) | 28 nM | 96% and 100% | ≥ 10 | 13 | 12 | 130 | 10 | – | 10.3 |
| – | – | – | – | COCC[C@H](NC(=O)[C@H](CC(C)C)N(C)C(=O)CNC(=O)[C@@H](NC(=O)[C@H](Cc1ccccc1)NC(=O)[C@H](CCCCN)NC(=O)[C@H](CC(=O)O)NC(=O)COCCOCCNC(=O)COCCOCCNC(=O)CC[C@H](NC(=O)CCCCCCCCCCCCCCCCC(=O)O)C(=O)O)[C@@H](C)O)C(N)=O [compound 383, *Asp;Lys;Phe;Thr;Gly;NmLeu;Metox;NH2] ({C18 diacid-γGlu-AEEA-AEEA}-DKFTG[NMeL][hSer](Me)-NH2) | ~11 nM | 89% | ≥ 10 | 110 | 11 | 83 | 11 | – | – |

Reference: patent publication US20230406883A1, “COMPOUNDS AND THEIR USE IN TREATMENT OF TACHYKININ RECEPTOR MEDIATED DISORDERS” (Embark Biotech ApS, priority 2020, published 2023)
